Test [1] has as its target recombinant PfPP1 (Plasmodium falciparum, UniProt Q8ILV1). Put plainly: biochemical. The format is biochemical.
Test [2] deals with PP1. Particulars: cited from earlier work.
Test [3] concerns other phosphatases. Particulars: cited from earlier work.
Test [4] relates to PP2B. Particulars: cited from earlier work.
The subject of test [5] is PP2A. To be noted: read-out: characteristic IC50; cited from earlier work.
Where [6] appears, read: read-out: IC50 for inhibition of PfPP1.

Where two headings read alike, the source gives them in different places.

As a reminder, the IC50 is the point on the concentration scale where inhibition reaches its midpoint. On to `[F-].[Na+]` [NaF], for which the IC50 in test [1] (read-out: IC50 for inhibition of PfPP1, recombinant PfPP1, data not shown) amounted to 2500 µM.

For `CO[C@H]([C@H](O)CC(=O)[C@@H](C)[C@@H](O)CC[C@@H](C)[C@@H]1O[C@]2(CC[C@@H](C)[C@H](CC[C@H](C)C(C)=O)O2)CC[C@@H]1C)[C@H](OC(=O)C[C@@H](O)C1=C(C)C(=O)OC1=O)C(C)C` [tautomycin], the “effect on PP1 versus PP2A” value in test [2] (PP1 and PP2A compared) is listed as “nearly equally”. For the same compound, the half-maximal inhibitory concentration (IC50) in test [1] stood at 0.0008 µM. For the same compound, in test [3], the “inhibition of other phosphatases” value is “fails to inhibit”.

For the compound `O=P(O)(O)OP(=O)(O)O` [pyrophosphate], the IC50 in test [1] (setting [6]) turned out to be 90 µM.

In the case of `C=C1[C@@H](O)[C@@H]2O[C@]3(CC[C@H](/C=C/[C@@H](C)[C@@H]4CC(C)=C[C@@]5(O[C@H](C[C@@](C)(O)C(=O)O)CC[C@H]5O)O4)O3)CC[C@H]2O[C@@H]1[C@@H](O)C[C@H](C)[C@H]1O[C@@]2(CCCCO2)CC[C@H]1C` [OA, okadaic acid], the “sensitivity of PP2B to toxin” value in test [4] was “highly resistant”. Further, the figures for the IC50 in test [2] (read-out: characteristic IC50), in test [5] and in test [1] were 0.02 to 0.08 µM, 0.001 to 0.005 µM and 0.1 µM, respectively.

As to `O=P(O)(O)O` [inorganic orthophosphate], the concentration for half-maximal inhibition (IC50) in test [1] (setting [6]) stood at 10000 µM.

(Values after paper PMC111503 (Malaria Journal, 2002).)
